Laboratory results published in patent US20080070868A1, “Novel Thiazole Inhibitors of Fructose 1,6-bisphosphatase” (Metabasis Therapeutics, Inc., priority 2004, published 2008).
Each block holds one molecule with its values, some of them ahead of it.

Columns and labels:
[1] = molecular target: T1, human NAT1 (Homo sapiens, UniProt P18440); experiment: N-acetylation by recombinant human NAT1; format: in vitro ADME; conditions: for % Conversion NAT1: compound 100 μM, 37° C., 120 min, N-acyl product by HPLC; for susceptibility to N-acetylation by NAT1, in words: human recombinant NAT1
T1 construct: purchased BD Gentest (Bedford, Mass.); host or cells: insect cells
T1 sequence (P18440 1-290): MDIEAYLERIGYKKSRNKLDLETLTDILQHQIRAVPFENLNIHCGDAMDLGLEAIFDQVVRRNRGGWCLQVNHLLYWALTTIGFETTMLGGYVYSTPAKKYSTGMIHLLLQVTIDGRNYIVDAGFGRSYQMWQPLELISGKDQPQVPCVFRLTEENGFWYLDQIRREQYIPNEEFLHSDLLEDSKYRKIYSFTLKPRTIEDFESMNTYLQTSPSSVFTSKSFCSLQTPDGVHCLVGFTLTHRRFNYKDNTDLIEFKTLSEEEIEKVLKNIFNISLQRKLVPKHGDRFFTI
Description: (§1) Insect cell-expressed human NAT1 and NAT2 and control insect cytosol were obtained from BD Gentest (Bedford, Mass.). Compounds (100 μM) were incubated in 0.25 mL of NAT reaction cocktail consisting of 25 mM potassium phosphate pH 7.4 (at 25° C.), 1 mM EDTA, 1 mM DTT, 0.5 mM acetyl CoA, 5 mM acetyl-DL-carnitine, 20 u/mL acetyltransferase and either NAT1, NAT2 or control insect cytosol (0.1 mg/mL). Reactions were performed in an Eppendorf Thermomixer (37° C., 120 min.). At 0 and 120 min., 100 μl of each reaction was removed and added to a clean 1.7 mL tube containing 150 μl of 100% methanol. The tubes were vortexed and centrifuged at 14,000 rpm for 10 min. in an Eppendorf microcentrifuge (room temperature, 5 min., 14,000 rpm). The supernatants were analyzed by HPLC (Agilent 1100 series) using a Phenosphere C18 column (5 micron, 150×4.6 mm). The column was equilibrated with 20 mM potassium phosphate pH 4.5 or pH 6.2 (at 25° C.) and eluted with a linear gradient to 80% acetonitrile. The percent conversion of the compounds was calculated from the following equation: area of N-acyl product divided by (area of compound+area of N-acyl product), multiplied by 100.

[2] = molecular target: T2, human liver FBPase (Homo sapiens, UniProt P09467); experiment: Inhibition of human liver FBPase; format: biochemical; conditions: for IC50: purified recombinant human liver FBPase, 0.150 mM fructose 1,6-bisphosphate, 37° C., read-out: IC50 (hlFBPase)
T2 construct: made in house; host or cells: E. coli BL21
T2 sequence (P09467 2-338 limits assumed): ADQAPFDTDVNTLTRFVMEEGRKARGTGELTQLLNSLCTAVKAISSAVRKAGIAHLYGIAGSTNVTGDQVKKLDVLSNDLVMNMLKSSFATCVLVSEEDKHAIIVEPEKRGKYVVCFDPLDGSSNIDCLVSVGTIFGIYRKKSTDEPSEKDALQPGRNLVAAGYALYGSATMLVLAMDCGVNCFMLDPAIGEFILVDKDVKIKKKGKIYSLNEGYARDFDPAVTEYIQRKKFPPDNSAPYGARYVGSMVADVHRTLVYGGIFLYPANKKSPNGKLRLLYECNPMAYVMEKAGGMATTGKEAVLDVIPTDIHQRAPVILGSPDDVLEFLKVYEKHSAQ
Description: E. coli strain BL21 transformed with a human liver FBPase-encoding plasmid was obtained from Dr. M. R. El-Maghrabi at the State University of New York at Stony Brook. […] Enzymatic activity was measured spectrophotometrically in reactions that coupled the formation of product (fructose 6-phosphate) to the reduction of dimethylthiazoldiphenyltetrazolium bromide (MTT) via NADP^+ and phenazine methosulfate (PMS), using phosphoglucose isomerase and glucose 6-phosphate dehydrogenase as the coupling enzymes. Reaction mixtures (200 μl) were made up in 96-well microtitre plates, and consisted of 50 mM Tris-HCl, pH 7.4, 100 mM KCl, 5 mM EGTA, 2 mM MgCl2, 0.2 mM NADP, 1 mg/ml BSA, 1 mM MTT, 0.6 mM PMS, 1 unit/ml phosphoglucose isomerase, 2 units/ml glucose 6-phosphate dehydrogenase, and 0.150 mM substrate (fructose 1,6-bisphosphate). Inhibitor concentrations were varied from 0.01 μM to 10 μM. Reactions were started by the addition of 0.002 units of pure hlFBPase, and were monitored for 7 min. at 590 nm in a Molecular Devices Plate Reader (37° C.).

[3] = molecular target: T3, human NAT2 (Homo sapiens, UniProt P11245); conditions: for % Conversion NAT2: human, 120 min, 100 μM, pH 7.4
T3 sequence (P11245 1-290): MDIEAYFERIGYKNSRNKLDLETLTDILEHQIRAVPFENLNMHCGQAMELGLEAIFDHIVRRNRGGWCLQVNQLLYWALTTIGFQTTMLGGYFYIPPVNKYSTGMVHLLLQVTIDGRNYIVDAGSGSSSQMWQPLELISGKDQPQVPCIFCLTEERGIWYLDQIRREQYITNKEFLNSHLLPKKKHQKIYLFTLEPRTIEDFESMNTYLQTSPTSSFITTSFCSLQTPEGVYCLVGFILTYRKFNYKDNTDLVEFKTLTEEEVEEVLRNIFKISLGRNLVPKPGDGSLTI
Description: as §1

[4] = system: Sprague-Dawley rats; experiment: Glucose lowering following oral administration to the fasted, normal rat; format: in vivo; conditions: maximum lowering relative to saline controls, 10 mg/kg oral, 18-h fasted rats
Description: Compounds were administered by oral gavage to 18-h fasted, Sprague-Dawley rats (250-300 g, n=3/4/group) at a dose of 10 mg/kg. Phosphonic acids (active moieties) were prepared in deionized water, and the solution adjusted to neutrality with sodium hydroxide. Prodrugs were dissolved in polyethylene glycol (mw 400). Blood samples were taken via tail vein nick immediately prior to dosing and at 1 h intervals thereafter. Blood glucose was analyzed by means of a HemoCue glucose analyzer (HemoCue Inc., Mission Viejo, Calif.). The table below indicates the maximum % glucose lowering achieved relative to control animals dosed with saline.

[5] = system: ZDF rats; experiment: Blood glucose lowering in the Zucker Diabetic Fatty (ZDF) rat; format: in vivo; conditions: for glucose lowering compared to vehicle-treated rats: 10 mg/kg oral in PEG-400, at 6 h, fasting ZDF rats; for duration of action: ZDF rat, oral, 2.1 at 10-300 mg/kg
Description: Nine week old ZDF rats were fasted at 7 am and screened for hyperglycemia (BG>300 mg/dl) at 12:30 pm. […] Food was withheld for 6 to 9 h. Blood samples were collected intermittently from the tail vein and diluted 1:2 (v:v) in 20% glycerol-saline with 20 U/ml heparin. Blood glucose was determined by means of a Hemocue glucose analyzer (Hemocue Inc., Mission Viejo, Calif.) used according to the instructions of the manufacturer. Results were expressed as means ±standard errors of the mean (sem) for all values. Differences between treatment and vehicle-treated animals were evaluated using ANOVA with Dunnett's post-hoc analysis or Tukey-Kramer's post hoc analysis when all differences are compared. Differences are considered significant when p≦0.05.

[6] = Variability of N-acetylation in human liver S9 fractions; format: in vitro ADME; conditions: 100 μM, S9 10 mg/mL protein; donors with high or low N-acetylase activity
Description: The reactions are incubated, processed, and analyzed as described in Example C.

SMILES: CCC(C)(C)C(=O)c1sc(N)nc1-c1ccc(P(=O)(O)O)o1 [Compound 1.2, {5-[2-amino-5-(2,2-dimethyl-butyryl)thiazol-4-yl]furan-2-yl}phosphonic acid]
% Conversion NAT1 [1]: 0%
susceptibility to N-acetylation by NAT1, in words [1]: not metabolized
IC50 [2]: 0.025 µM

SMILES: Nc1nc(-c2ccc(P(=O)(O)O)o2)c(C(=O)c2ccccc2)s1 [Compound 1.5, [5-(2-amino-5-benzoylthiazol-4-yl)furan-2-yl]phosphonic acid]
melting point: > 210 °C
IC50 [2]: 0.056 µM

SMILES: Nc1ncnc2c1ncn2[C@@H]1O[C@H](COP(=O)(O)O)[C@@H](O)[C@H]1O [AMP, reference compound]
IC50 [2]: 1 µM

SMILES: COc1cccc(C(=O)c2sc(N)nc2-c2ccc(P(=O)(O)O)o2)c1 [Compound 1.18, [5-(2-amino-5-(3-methoxybenzoyl)thiazol-4-yl)furan-2-yl]-phosphonic acid]
IC50 [2]: 0.085 µM

SMILES: CC(=O)Nc1nc(-c2ccc(P(=O)(O)O)o2)c(C(=O)C(C)(C)C)s1 [N-acetyl-1.1, reference compound]
rightward shift in potency in the FBPase assay on N-acetylation ([2]; N-acetyl-1.1 relative to 1.1): 74.5 fold
IC50 [2]: 2.31 µM

SMILES: Nc1nc(-c2ccc(P(=O)(O)O)o2)c(C(=O)c2ccc(N3CCCCC3)cc2)s1 [Compound 1.31, [5-(2-amino-5-(4-piperidinylbenzoyl)thiazol-4-yl)furan-2-yl]-phosphonic acid]
IC50 [2]: 0.073 µM

SMILES: Nc1nc(-c2ccc(P(=O)(O)O)o2)c(C(=O)c2ccc(F)cc2)s1 [Compound 1.22, [5-(2-amino-5-(4-fluorobenzoyl)thiazol-4-yl)furan-2-yl]-phosphonic acid]
IC50 [2]: 0.033 µM

SMILES: CCC(CC)C(=O)c1sc(N)nc1-c1ccc(P(=O)(O)O)o1 [Compound 1.23, [5-(2-amino-5-(2-ethylbutyryl)thiazol-4-yl)furan-2-yl]-phosphonic acid]
IC50 [2]: 0.009 µM

SMILES: Nc1nc(-c2ccc(P(=O)(O)O)o2)c(C(=O)c2cccc(C(F)(F)F)c2)s1 [Compound 1.26, [5-(2-amino-5-(3-trifluoromethylbenzoyl)thiazol-4-yl)-furan-2-yl]phosphonic acid]
IC50 [2]: 0.119 µM

SMILES: Cc1ccccc1C(=O)c1sc(N)nc1-c1ccc(P(=O)(O)O)o1 [Compound 1.13, [5-(2-amino-5-(2-methylbenzoyl)thiazol-4-yl)furan-2-yl]-phosphonic acid]
IC50 [2]: 0.048 µM

SMILES: CCC(C)(CC)C(=O)c1sc(N)nc1-c1ccc(P(=O)(O)O)o1 [Compound 1.3, [5-(2-amino-5-(2-ethyl-2-methyl-butyryl)thiazol-4-yl)furan-2-yl]phosphonic acid]
% Conversion NAT1 [1]: 0%
susceptibility to N-acetylation by NAT1, in words [1]: not metabolized
melting point: 202 to 205 °C
IC50 [2]: 0.018 µM

SMILES: CC(=O)c1sc(N)nc1-c1ccc(P(=O)(O)O)o1 [Compound 1.4, [5-(2-amino-5-acetylthiazol-4-yl)furan-2-yl]phosphonic acid]
melting point: > 207 °C
IC50 [2]: 0.066 µM

SMILES: Nc1nc(-c2ccc(P(=O)(O)O)o2)c(C(=O)c2ccc(-c3ccccc3)cc2)s1 [Compound 1.28, [5-(2-amino-5-(4-phenylbenzoyl)thiazol-4-yl)furan-2-yl]-phosphonic acid]
IC50 [2]: 0.057 µM

Continued, in another order:

% Conversion NAT1 [1]: 4.6%
SMILES: CCC(C)(C)Cc1sc(N)nc1-c1ccc(P(=O)(O)O)o1 [Compound 3.3, reference compound]

% Conversion NAT1 [1]: 22.3%
SMILES: Nc1nc(-c2ccc(P(=O)(O)O)o2)c(CC2CCCC2)s1 [Compound 3.2, reference compound]

susceptibility to N-acetylation by NAT2, in words [3]: insusceptible
% Conversion NAT2 [3]: 0%
SMILES: CCOC(=O)[C@H](C)NP(=O)(N[C@@H](C)C(=O)OCC)c1ccc(-c2nc(N)sc2C(=O)C(C)(C)C)o1 [Compound 2.2, 2-amino-5-(2,2-dimethylpropionyl)-4-{[5-(N,N′-((S)-1-ethoxycarbonyl)-ethyl)phosphonamido]furan-2-yl}thiazole]
inhibition in vivo at 10 mg/kg [4]: 25%

% Conversion NAT1 [1]: 0%
susceptibility to N-acetylation by NAT1, in words [1]: insusceptible
melting point: 149 to 152 °C
conversion to N-acetylated metabolite in human liver S9 from various donors [6]: no conversion
susceptibility to N-acetylation by NAT2, in words [3]: insusceptible
% Conversion NAT2 [3]: 0%
IC50 [2]: > 100 µM
SMILES: CCOC(=O)C(C)(C)NP(=O)(NC(C)(C)C(=O)OCC)c1ccc(-c2nc(N)sc2C(=O)C(C)(C)C)o1 [Compound 2.1]
glucose lowering compared to vehicle-treated rats [5]: 30%
duration of action [5]: > 9 h
inhibition in vivo at 10 mg/kg [4]: 68%

melting point: 157 to 160 °C
SMILES: CCOC(=O)C(C)(C)NP(=O)(NC(C)(C)C(=O)OCC)c1ccc(-c2nc(N)sc2C(=O)C(C)(CC)CC)o1 [Compound 2.5]
inhibition in vivo at 10 mg/kg [4]: 15%

melting point: 86 to 88 °C
SMILES: CCOC(=O)CNP(=O)(NCC(=O)OCC)c1ccc(-c2nc(N)sc2C(=O)C(C)(C)C)o1 [Compound 2.4]
inhibition in vivo at 10 mg/kg [4]: 22%

% Conversion NAT1 [1]: 14.2%
SMILES: CCC(C)Cc1sc(N)nc1-c1ccc(P(=O)(O)O)o1 (stereo not drawn) [Compound 3.5, reference compound]

melting point: 160 to 164 °C
SMILES: CCC(C)(CC)C(=O)c1sc(N)nc1-c1ccc(P(=O)(NC(C)(C)C(=O)OC(C)C)NC(C)(C)C(=O)OC(C)C)o1 [Compound 2.6]
inhibition in vivo at 10 mg/kg [4]: 12%

% Conversion NAT1 [1]: 14.0%
SMILES: CC(C)c1sc(N)nc1-c1ccc(P(=O)(O)O)o1 [Compound 3.4, reference compound]

% Conversion NAT1 [1]: 6.3%
conversion to N-acetylated metabolite in human liver S9 from various donors [6]: high levels
susceptibility to N-acetylation by NAT2, in words [3]: extensively metabolized
% Conversion NAT2 [3]: 62.4%
IC50 [2]: > 100 µM
SMILES: CCOC(=O)[C@H](C)NP(=O)(N[C@@H](C)C(=O)OCC)c1ccc(-c2nc(N)sc2CC(C)C)o1 [Compound 4.6, reference compound]
glucose lowering compared to vehicle-treated rats [5]: 14%
duration of action [5]: ~3 h

susceptibility to N-acetylation by NAT2, in words [3]: insusceptible
% Conversion NAT2 [3]: 0%
SMILES: CC(C)OC(=O)C(C)(C)NP(=O)(NC(C)(C)C(=O)OC(C)C)c1ccc(-c2nc(N)sc2C(=O)C(C)(C)C)o1 [Compound 2.3]
inhibition in vivo at 10 mg/kg [4]: 27%
